Source: patent publication EP4803142A2 (Kayothera Inc., priority 2021, dated 2022)

Legend:
[1] = target: T1, hALDH1a2 (Homo sapiens, UniProt O94788); assay: biochemical; details: read-out: hAldhla2 IC50
T1 construct: pET-Aldh1a2 transformed BL21-DE3 cultures; cell extracts
T1 sequence (O94788 1-518): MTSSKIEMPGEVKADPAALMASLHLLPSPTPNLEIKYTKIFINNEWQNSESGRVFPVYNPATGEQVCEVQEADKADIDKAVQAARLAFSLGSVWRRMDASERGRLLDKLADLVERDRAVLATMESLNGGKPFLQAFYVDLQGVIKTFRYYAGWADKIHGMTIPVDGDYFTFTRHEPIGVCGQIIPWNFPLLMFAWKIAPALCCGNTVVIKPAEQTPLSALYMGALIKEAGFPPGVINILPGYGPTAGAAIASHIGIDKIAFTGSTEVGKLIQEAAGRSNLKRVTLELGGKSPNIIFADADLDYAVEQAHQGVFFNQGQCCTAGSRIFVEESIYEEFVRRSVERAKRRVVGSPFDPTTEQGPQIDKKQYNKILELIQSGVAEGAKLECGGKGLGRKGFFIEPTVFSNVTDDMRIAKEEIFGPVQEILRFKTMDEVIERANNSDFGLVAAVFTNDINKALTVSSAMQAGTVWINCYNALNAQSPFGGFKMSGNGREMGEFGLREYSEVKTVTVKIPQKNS
Procedure: (§1) Biological Example 5C. Aldh1a2 Enzyme Inhibition Assay
(§2) Cell extracts were spun at 16000 x g for 5 minutes.
(§3) Recombinant enzyme and inhibitor added immediately before assay. Reaction rate measured by resorufin fluorescence. […]
(§4) Table 3B. IC50 values (nM) for inhibition of hALDH1a2 and mALDH1a2 of selected compounds

[2] = target: T2, mALDH1a2 (Mus musculus, UniProt Q62148); assay: biochemical; details: read-out: mAldhla2 IC50
T2 construct: pET-Aldh1a2 transformed BL21-DE3 cultures; cell extracts
T2 sequence (Q62148 1-518): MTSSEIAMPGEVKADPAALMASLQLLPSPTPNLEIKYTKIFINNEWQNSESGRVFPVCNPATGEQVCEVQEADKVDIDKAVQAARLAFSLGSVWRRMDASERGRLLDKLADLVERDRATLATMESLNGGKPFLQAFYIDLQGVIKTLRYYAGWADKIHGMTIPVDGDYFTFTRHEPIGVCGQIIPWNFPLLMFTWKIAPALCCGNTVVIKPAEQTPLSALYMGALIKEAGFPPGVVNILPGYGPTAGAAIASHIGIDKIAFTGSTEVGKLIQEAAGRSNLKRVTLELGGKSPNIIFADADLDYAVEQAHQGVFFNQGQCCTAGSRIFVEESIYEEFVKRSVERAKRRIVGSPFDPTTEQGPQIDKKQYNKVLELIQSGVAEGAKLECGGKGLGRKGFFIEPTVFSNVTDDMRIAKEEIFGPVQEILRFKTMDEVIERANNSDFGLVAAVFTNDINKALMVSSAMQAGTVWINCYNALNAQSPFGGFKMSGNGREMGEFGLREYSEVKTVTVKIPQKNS
Procedure: as §1, §2, §3, §4

O=S1(=O)CCc2cc(Nc3ccc4ccccc4n3)ccc2N1 [compound 102]
IC50 [1]: > 10000 nM | IC50 [2]: > 10000 nM

CCc1cnc(C)cc1C(=O)Nc1cc2c(cc1F)NC(=O)CC2 [compound 79]
IC50 [1]: 1460 nM | IC50 [2]: 849 nM

Cc1cc(C(=O)Nc2cc3c(cc2F)NC(=O)C(C)(C)C3)c(CC(C)C)cn1 [compound 37]
IC50 [1]: > 10000 nM | IC50 [2]: > 10000 nM

Cc1ccc2ccc(Nc3ccc4c(c3)CCC(=O)N4)nc2c1 [compound 91]
IC50 [1]: 998 nM | IC50 [2]: 594 nM

CCc1cnccc1C(=O)Nc1ccc2c(c1)C(C)(C)C(=O)N2 [compound 137]
IC50 [1]: > 10000 nM | IC50 [2]: > 100000 nM

N#Cc1ccc2nc(Nc3ccc4c(c3)CCC(=O)N4)ccc2c1 [compound 88]
IC50 [1]: > 10000 nM | IC50 [2]: > 10000 nM

O=C1CCc2cc(NC(=O)c3ccncc3C(F)(F)F)ccc2N1 [compound 54]
IC50 [1]: 1060 nM | IC50 [2]: 224 nM

CCc1cnccc1C(=O)Nc1cc2c(cc1C#N)NC(=O)CC2 [compound 84]
IC50 [1]: > 10000 nM | IC50 [2]: > 10000 nM

Cc1cccc2ncc(Nc3ccc4c(c3)CCC(=O)N4)cc12 [compound 101]
IC50 [1]: 1890 nM | IC50 [2]: 935 nM

CC1(C)Cc2cc(Nc3ncc4ccccc4n3)c(F)cc2NC1=O [compound 108]
IC50 [1]: 120 nM | IC50 [2]: 100 nM

CC1(C)Cc2cc(Nc3nc(=O)c4ccccc4[nH]3)ccc2NC1=O [compound 116]
IC50 [1]: 305 nM | IC50 [2]: 337 nM

CC1(C)Cc2cc(Nc3ccc4ccncc4n3)ccc2NC1=O [compound 94]
IC50 [1]: 809 nM | IC50 [2]: 921 nM

N#Cc1cccc2ncc(Nc3ccc4c(c3)CCC(=O)N4)cc12 [compound 100]
IC50 [1]: > 10000 nM | IC50 [2]: > 10000 nM

CCc1cnccc1C(=O)Nc1ccc2c(c1)C(C)(C)CC(=O)N2 [compound 19]
IC50 [1]: 650 nM | IC50 [2]: 1050 nM

CCc1cnccc1CNc1cc2c(cc1F)NC(=O)CC2 [compound 3]
IC50 [1]: 4000 nM | IC50 [2]: 3330 nM

CC1(C)Cc2cc(Nc3ccc4c(n3)CCCC4=O)ccc2NC1=O [compound 127]
IC50 [1]: 894 nM | IC50 [2]: 1290 nM

O=C1CCc2cc(NC(=O)c3ccnc4ccccc34)ccc2N1 [compound 52]
IC50 [1]: 320 nM | IC50 [2]: 117 nM

CC1(C)Cc2cc(Nc3ncc4ccccc4n3)ccc2NC1=O [compound 93]
IC50 [1]: 80 nM | IC50 [2]: 63 nM

CCc1cnccc1/C=C/c1ccc2c(c1)CCC(=O)N2 [compound 33]
IC50 [1]: 258 nM | IC50 [2]: 143 nM

COCc1cnccc1C(=O)Nc1ccc2c(c1)CCC(=O)N2 [compound 57]
IC50 [1]: > 10000 nM | IC50 [2]: > 10000 nM

Cc1cc(C(=O)Nc2ccc3c(c2)CC2(CC2)C(=O)N3)c(Cl)cn1 [compound 68]
IC50 [1]: > 10000 nM | IC50 [2]: 3440 nM

CC1(C)Cc2cc(Nc3ccc4ccncc4c3)ccc2NC1=O [compound 104]
IC50 [1]: > 10000 nM | IC50 [2]: > 10000 nM

CC1(C)Cc2cc(NC3COc4ccccc4C3)ccc2NC1=O (stereo not drawn) [compound 105]
IC50 [1]: > 10000 nM | IC50 [2]: > 10000 nM

CC1(C)Cc2cc(Nc3c[nH]c4ccccc4c3=O)ccc2NC1=O [compound 115]
IC50 [1]: > 10000 nM | IC50 [2]: > 10000 nM

CCc1cnccc1C(=O)Nc1cc2c(cc1F)NC(=O)C(C)(C)C2 [compound 38]
IC50 [1]: > 10000 nM | IC50 [2]: > 10000 nM

CC1(C)Cc2cc(Nc3ccc4cnccc4c3)ccc2NC1=O [compound 103]
IC50 [1]: > 10000 nM | IC50 [2]: 5000 nM

CC1(C)CC(=O)Nc2ccc(Nc3nccc4ccccc34)cc21 [compound 34]
IC50 [1]: 39200 nM | IC50 [2]: 30900 nM

CC1(C)Cc2cc(Nc3nc4ccccc4o3)ccc2NC1=O [compound 99]
IC50 [1]: 316 nM | IC50 [2]: 184 nM

N#Cc1cccc2nc(Nc3ccc4c(c3)CCC(=O)N4)ccc12 [compound 86]
IC50 [1]: 10000 nM | IC50 [2]: 84 nM

O=C1CCc2cc(NCc3ccccc3)ccc2N1 [compound 14]
IC50 [1]: 10000 nM | IC50 [2]: 10000 nM

CCc1cccnc1C(=O)Nc1cc2c(cc1Cl)NC(=O)CC2 [compound 72]
IC50 [1]: > 10000 nM | IC50 [2]: > 10000 nM

CC1(C)Cc2cc(Nc3ccc4cnccc4n3)ccc2NC1=O [compound 95]
IC50 [1]: 10000 nM | IC50 [2]: 1770 nM

CC1(C)Cc2cc(NN3CCC(c4ccccc4)C3=O)ccc2NC1=O (stereo not drawn) [compound 106]
IC50 [1]: > 10000 nM | IC50 [2]: > 10000 nM

CC1(C)Cc2cc(Nc3ccc4c(Cl)cccc4n3)ccc2NC1=O [compound 112]
IC50 [1]: 346 nM | IC50 [2]: 300 nM

CCc1cnccc1C(=O)Nc1cc2ccc(=O)[nH]c2cc1F [compound 39]
IC50 [1]: 3500 nM | IC50 [2]: 8000 nM

O=C1CCc2cc(Nc3cnc4ccccc4n3)ncc2N1 [compound 126]
IC50 [1]: 214 nM | IC50 [2]: 165 nM

CCCc1cnccc1C(=O)Nc1ccc2c(c1)CCC(=O)N2 [compound 60]
IC50 [1]: 1530 nM | IC50 [2]: 935 nM

Cc1cc(C(=O)Nc2cc3c(cc2F)NC(=O)CC3)ccn1 [compound 16]
IC50 [1]: 10000 nM | IC50 [2]: 10000 nM

CCc1cnccc1C(=O)Nc1ccc2c(c1)CC(C)(C)C(=O)N2 [compound 18]
IC50 [1]: 2130 nM | IC50 [2]: 1740 nM
